Key:
[1] = system: Peritoneal macrophages from C57Bl/6 mice; test: Macrophages stimulated with EO771 tumor conditioned medium (qPCR, histone kit, ChIP); assay type: cell-based, mouse
Method: 4T1 cells were obtained from the American Type Culture Collection (ATCC), and EO771 cells were developed from an ER+ spontaneous mammary adenocarcinoma. The cells were maintained in culture according to standard practice. For tumor conditioned medium (TCM) collection, cells were grown until they were 80-90% confluent. Following, the medium was replaced with serum free (SF) DMEM and the cells were cultured for 48 h. The medium was then collected and passed through a 0.45 μm filter (Millipore Corp., Bedford, Mass.). The medium was concentrated 10 times using centrifuge filters with a 3,000 MW cutoff (Millipore). Before use the concentrated conditioned medium was diluted 1:2 with fresh SF DMEM.
Mice were injected with 3 mL of 4% thioglycollate solution. After 3 d, macrophages were collected by peritoneal lavage with PBS. The cells were resuspended in DMEM with 10% FBS and cultured for 2 h. The non-adherent cells were then washed away and the remaining cells were cultured overnight in SF DMEM. The cells were then treated with TCM with or without emodin.
For qPCR, cells were lysed with Qiazol, and RNA was extracted using Zymo research Direct-zol RNA isolation kit. cDNA was then made from 1 μg of RNA using iScript cDNA Synthesis Kit (Bio-Rad Life Science, Hercules, Calif.). Run conditions were 95° C. for 10 s, 58° C. for 15 s, 70° C. for 15 s. Samples were run in duplicate on a Bio-rad CFX Real Time thermocycler.
Macrophages were fixed in 1% formaldehyde. Excess formaldehyde was quenched with glycine, and the cells were collected in PBS by scraping. The cells were lysed (0.5% IGEPAL, 4 mM HEPES), and the nuclei were resuspended in nuclear lysis buffer (1% SDS, 10 mM EDTA, and 50 mM Tris, pH 8.1). The DNA was sheared by sonication using a Diagnode Bioruptor Pico (Diagenode, Denville, N.J.) for 25 cycles of 30 s on/30 s off. Then 8 μg chromatin was diluted 1:10 (0.01% SDS, 1.1% Triton X-100, 1.2 mM EDTA, 16.7 mM Tris-HCl, pH 8.1, 167 mM NaCl), and 2% of the input was removed from each sample and saved for analysis. Anti-H3K27m3 (Abcam) was added to each sample along with 20 μL of protein A+G magnetic beads (Millipore), and the samples were incubated overnight at 4° C. The beads were washed with low salt, high salt, LiCl, and TE wash buffers sequentially, and the DNA was eluted off the beads with Proteinase K at 62° C. for 2 h (elution buffer: 200 mM NaCl, 1% SDS and 50 mM Tris). The DNA was then analyzed by qPCR.
In order to detect genome wide levels of histone H3 modifications, histones were isolated from macrophages treated with TCM with or without emodin for 24 h using EpiQuik total histone extraction kits (Epigentek, Farmingdale, N.Y.) according to the manufacturer's instructions. Histones (100 ng) were then analyzed using an EpiQuik Histone H3 modification kits (EpiGentek) according to the manufacturer's instructions.

[2] = system: mouse peritoneal macrophages; test: Whole genome microarray, macrophages stimulated with LPS/IFNγ; assay type: cell-based
Method: Three milliliters of 4% Thioglycolate solution was injected intraperitoneally into 8-12 week old C57BL/6 mice. Three days later, macrophages were collected by lavaging the peritoneal cavity with PBS. The cells were then resuspended in DMEM containing 10% FBS. After 2 h, non-adherent cells were washed away with PBS and the macrophages were cultured overnight in serum free DMEM. The macrophages were then treated with DMEM containing IL4 (10 ng/ml, BioAbChem Inc. Ladson, S.C.) or LPS (100 ng/ml, Sigma-Aldrich) and IFNγ (20 ng/ml, BioAbChem Inc) with or without emodin. Emodin was purchased from Nanjing Langze Medicine and Technology Co. Ltd (Nanjing, China) and dissolved in DMSO at a concentration of 10 mg/ml as a stock solution.
Microarray analysis was carried out as described previously, with a few alterations. Macrophages were stimulated with IL4 for 6 h or LPS+IFNγ for 24 h with or without emodin (50 μM). Samples were prepared in biological replicates of 4. Cells were lysed with Qiazol and RNA was extracted using Qiagen's miRNeasy kit. Agilent's 2100 Bioanalyzer was used to determine the quality and quantity of the RNA. […] The RNA was amplified and labeled with Agilent's Low Input Quick Amp Labeling Kit (Agilent) according to the manufacturer's instructions. Labeled RNA was then purified using Qiagen's RNeasy Mini Kit (Qiagen, Valencia, Calif.) and dye incorporation and cRNA yield were assessed. Labeled samples were hybridized to Agilent Whole Mouse Genome Microarrays 8×60K (Agilent) using Agilent's Gene Expression Hybridization Kit (Agilent) according to the manufacturer's instructions. Microarray analysis was performed using an Agilent DNA Microarray Scanner System (Cat. # G2565CA).
For microarray analysis, data was extracted from images with Feature Extractor Software version 10.7.3.1 (Agilent); background correction using detrending algorithms was performed. Subsequently, background-corrected data was uploaded into GeneSpring GX version 11.5.1 for analysis. In this process, data was log 2 transformed, quantile normalized and baseline transformed using the median of all samples. […] Differentially expressed genes were determined by analysis of the data using the Mann-Whitney unpaired statistics. A cutoff p-value of 0.05 and a fold change cutoff value of 2.0 were used to filter the data. Pathway analysis was performed using Ingenuity Pathway Analysis software.

Cc1cc(O)c2c(c1)C(=O)c1cc(O)cc(O)c1C2=O [emodin]
TCM-decreased H3K27m3 on the promoters of IRF4, Arg1, and C/EBPβ ([1]; ChIP assay): reversed the reduction
TCM-increased expression of ICAM1 ([1]; EO771 TCM, 24 h, qPCR): dose dependently blocked
TCM-induced expression of Arg1, C/EBPβ and IRF4 ([1]; EO771 TCM, 24 h, qPCR): dose-dependently inhibited
expression of CSFr1 ([1]; EO771 TCM, 24 h, qPCR): decreased the expression
expression of MMP2 and MMP9 ([1]; EO771 TCM, 24 h, qPCR): inhibited expression
TCM-increased expression of JMJD3 ([1]; EO771 TCM, emodin 25 μM or 50 μM, 24 h): significantly attenuated
global levels of H3K27 methylation ([1]; EpiQuik histone modification kit): no effects
fold reduction of LPS/IFNγ induced expression ([2]; CD86, microarray, emodin 50 μM): 7.74 fold
fold change of expression under LPS/IFNγ stimulation ([2]; CXCL2, microarray): −10.31 fold
fold change of expression under LPS/IFNγ stimulation ([2]; CXCL10, microarray): −2.01 fold
fold reduction of LPS/IFNγ induced expression ([2]; H2-Oa, microarray, emodin 50 μM): 3.85 fold
fold reduction of LPS/IFNγ induced expression ([2]; H2-Ob, microarray, emodin 50 μM): 6.42 fold
fold reduction of LPS/IFNγ induced expression ([2]; IL1β, microarray, emodin 50 μM): 13.64 fold
fold reduction of LPS/IFNγ induced expression ([2]; IL6, microarray, emodin 50 μM): 3.25 fold
genes changed by emodin in both groups ([2]; LPS/IFNγ and IL4 stimulation, microarray): 1,575 genes
genes whose expression was changed by emodin in at least one of the conditions ([2]; LPS/IFNγ or IL4 stimulation, microarray): ~6,500 genes
genes on which emodin had inverse effects under the two different stimuli ([2]; LPS/IFNγ vs IL4, microarray): 86 genes
fold reduction of LPS/IFNγ induced expression ([2]; MMP2, microarray, emodin 50 μM): 11.86 fold
fold reduction of LPS/IFNγ induced expression ([2]; MMP9, microarray, emodin 50 μM): 28.87 fold
fold increase of expression under LPS/IFNγ stimulation ([2]; Mrc1, microarray): 8.72 fold
fold change of expression under LPS/IFNγ stimulation ([2]; TNFα, microarray): −2.47 fold
fold reduction of LPS/IFNγ induced expression ([2]; TNFα, microarray, emodin 50 μM): 2.01 fold
fold increase of expression under LPS/IFNγ stimulation ([2]; YM1, microarray): 2.04 fold
LPS/IFNγ responsive genes whose induced changes were attenuated ([2]; emodin 50 μM, LPS/IFNγ 24 h): about 31%
Em + LPS vs. LPS/IFN (gene expression) ([2]; gene CCL2, microarray, LPS/IFNγ 24 h, emodin 50 μM): −12.06
Em + LPS vs. LPS/IFN (gene expression) ([2]; gene CCL5, microarray, LPS/IFNγ 24 h, emodin 50 μM): −5.41
Em + LPS vs. LPS/IFN (gene expression) ([2]; gene CD86, microarray, LPS/IFNγ 24 h, emodin 50 μM): −7.74
Em + LPS vs. LPS/IFN (gene expression) ([2]; gene CXCL2, microarray, LPS/IFNγ 24 h, emodin 50 μM): −2.47
Em + LPS vs. LPS/IFN (gene expression) ([2]; gene CXCL3, microarray, LPS/IFNγ 24 h, emodin 50 μM): −2.47
Em + LPS vs. LPS/IFN (gene expression) ([2]; gene CXCL10, microarray, LPS/IFNγ 24 h, emodin 50 μM): −10.31
Em + LPS vs. LPS/IFN (gene expression) ([2]; gene FPR2, microarray, LPS/IFNγ 24 h, emodin 50 μM): −33.81
Em + LPS vs. LPS/IFN (gene expression) ([2]; gene H2-Oa, microarray, LPS/IFNγ 24 h, emodin 50 μM): −3.85
Em + LPS vs. LPS/IFN (gene expression) ([2]; gene H2-Ob, microarray, LPS/IFNγ 24 h, emodin 50 μM): −6.42
Em + LPS vs. LPS/IFN (gene expression) ([2]; gene IFIT1, microarray, LPS/IFNγ 24 h, emodin 50 μM): −11.94
Em + LPS vs. LPS/IFN (gene expression) ([2]; gene IL1B, microarray, LPS/IFNγ 24 h, emodin 50 μM): −13.64
Em + LPS vs. LPS/IFN (gene expression) ([2]; gene IL1RL1, microarray, LPS/IFNγ 24 h, emodin 50 μM): −10.78
Em + LPS vs. LPS/IFN (gene expression) ([2]; gene IL6, microarray, LPS/IFNγ 24 h, emodin 50 μM): −3.25
Em + LPS vs. LPS/IFN (gene expression) ([2]; gene IL12A, microarray, LPS/IFNγ 24 h, emodin 50 μM): −4.93
Em + LPS vs. LPS/IFN (gene expression) ([2]; gene IL12B, microarray, LPS/IFNγ 24 h, emodin 50 μM): 2.47
Em + LPS vs. LPS/IFN (gene expression) ([2]; gene IRF5, microarray, LPS/IFNγ 24 h, emodin 50 μM): −2.11
Em + LPS vs. LPS/IFN (gene expression) ([2]; gene IRF7, microarray, LPS/IFNγ 24 h, emodin 50 μM): −4.20
Em + LPS vs. LPS/IFN (gene expression) ([2]; gene MMP2, microarray, LPS/IFNγ 24 h, emodin 50 μM): −11.86
Em + LPS vs. LPS/IFN (gene expression) ([2]; gene MMP9, microarray, LPS/IFNγ 24 h, emodin 50 μM): −28.87
Em + LPS vs. LPS/IFN (gene expression) ([2]; gene MYH3, microarray, LPS/IFNγ 24 h, emodin 50 μM): −7.76
Em + LPS vs. LPS/IFN (gene expression) ([2]; gene Mrc1, microarray, LPS/IFNγ 24 h, emodin 50 μM): 8.72
Em + LPS vs. LPS/IFN (gene expression) ([2]; gene NOS2, microarray, LPS/IFNγ 24 h, emodin 50 μM): −3.77
Em + LPS vs. LPS/IFN (gene expression) ([2]; gene PTGS2, microarray, LPS/IFNγ 24 h, emodin 50 μM): −3.99
Em + LPS vs. LPS/IFN (gene expression) ([2]; gene RASGRP1, microarray, LPS/IFNγ 24 h, emodin 50 μM): −8.52
Em + LPS vs. LPS/IFN (gene expression) ([2]; gene SELL, microarray, LPS/IFNγ 24 h, emodin 50 μM): −10.45
Em + LPS vs. LPS/IFN (gene expression) ([2]; gene SOCS1, microarray, LPS/IFNγ 24 h, emodin 50 μM): −5.34
Em + LPS vs. LPS/IFN (gene expression) ([2]; gene TLR4, microarray, LPS/IFNγ 24 h, emodin 50 μM): −4.71
Em + LPS vs. LPS/IFN (gene expression) ([2]; gene TNF, microarray, LPS/IFNγ 24 h, emodin 50 μM): −2.01

From US9795570B2, “Modulation of macrophage phenotype by emodin” (University of South Carolina, priority 2016, dated 2017)
